Here are results for two compounds from US12692232B2, “Indole carboxamide compound, preparation therefor and use thereof” (NANJING RUISHUNING MEDICAL TECHNOLOGY CO., LTD., priority 2021, dated 2026).

For the assay, the target named is T1, TRPC5 protein (Homo sapiens, UniProt Q9UL62).
T1 sequence (Q9UL62 1-973): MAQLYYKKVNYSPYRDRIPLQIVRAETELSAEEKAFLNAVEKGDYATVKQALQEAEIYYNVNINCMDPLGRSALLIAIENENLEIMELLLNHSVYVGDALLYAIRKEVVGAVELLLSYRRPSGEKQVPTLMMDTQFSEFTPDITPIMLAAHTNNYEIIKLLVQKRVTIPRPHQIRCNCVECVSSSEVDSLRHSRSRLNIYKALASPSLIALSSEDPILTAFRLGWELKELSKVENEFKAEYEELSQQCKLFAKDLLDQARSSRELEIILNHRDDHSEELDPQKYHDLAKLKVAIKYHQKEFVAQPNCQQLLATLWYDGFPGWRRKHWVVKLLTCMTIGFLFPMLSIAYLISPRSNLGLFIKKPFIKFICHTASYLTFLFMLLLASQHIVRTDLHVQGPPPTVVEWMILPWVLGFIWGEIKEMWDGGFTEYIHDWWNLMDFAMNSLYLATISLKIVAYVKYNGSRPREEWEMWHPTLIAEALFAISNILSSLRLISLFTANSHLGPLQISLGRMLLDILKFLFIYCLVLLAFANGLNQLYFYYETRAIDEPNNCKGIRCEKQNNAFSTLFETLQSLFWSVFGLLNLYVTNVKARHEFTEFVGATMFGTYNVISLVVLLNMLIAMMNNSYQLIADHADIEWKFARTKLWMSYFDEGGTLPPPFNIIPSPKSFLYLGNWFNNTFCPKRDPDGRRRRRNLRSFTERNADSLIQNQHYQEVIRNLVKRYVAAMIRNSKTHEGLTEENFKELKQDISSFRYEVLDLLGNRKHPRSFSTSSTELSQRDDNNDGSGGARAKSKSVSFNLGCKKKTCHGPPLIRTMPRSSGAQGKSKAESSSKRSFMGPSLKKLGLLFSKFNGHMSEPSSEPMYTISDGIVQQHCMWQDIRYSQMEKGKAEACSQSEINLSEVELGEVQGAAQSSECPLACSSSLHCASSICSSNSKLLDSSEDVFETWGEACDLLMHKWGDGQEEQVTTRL
Nature of the assay: MST binding to TRPC5 protein. Here is the method:
Preparation and labelling of protein solution: TRPC6 protein dry powder (Alomone Labs, Israel) was prepared into a protein mother solution at a concentration of 10 μM using PBS-Buffer, and 35 μL of the protein stock solution was taken to the Buffer exchange A column, and centrifuged to obtain the Tris-removed protein. 34 μL Labelling Buffer was added to the Tris-removed protein according to the instructions of the Protein Fluorescent Labelling Kit (model L001). After mixing well, 3 μL of NT-647-NHS fluorescent dye was added and thus obtained mixture was incubated for 20 minutes. The protein-dye mixture was transferred to the purification B column, 300 μL of PBS-Buffer was added, and the target protein, i.e. fluorescent labelled protein TRPC6, was collected by centrifugation (with a final concentration of about 2 μM). 180 μL of target protein was mixed with 1620 μL of PBS-Buffer, and then 9 μl of Tween-20 were added thereto. […]
The binding ability of the compounds of the present invention (as exemplified by the compounds 1-1 and 2-1 obtained in Examples 1 and 3) for other TRPC proteins (e.g., TRPC1, TRPC3, TRPC4, TRPC5, and TRPC7) was determined using the microscale thermophoresis (MST) method. […]
The affinity of the compounds of the present invention with TRPC1, TRPC3, TRPC4, TRPC5 and TRPC7 proteins, respectively, was determined by the same method as in Example 5.

Turning to `CC(=O)OCCCNC(=O)c1c(C=O)c2ccccc2n1C` [compound 1-1, propyl 3-[(3-formyl-1-methyl-1H-indole-2-carbonyl)amino]acetate], the “Kd for binding to TRPCS protein” value is “cannot be measured”.

As to `Cn1c(C(=O)NCCCOC(=O)c2ccccc2)c(C=O)c2ccccc21` [compound 2-1], the “Kd for binding to TRPCS protein” value is “cannot be measured”.
